The source of these data is ChEMBL document CHEMBL6092122, “Nonenzymatic Sequestering of Formaldehyde into the Antibiotic Methylene-Bridged Dimer Phaeochromycin F by Streptomyces sp. OUCMDZ-4982 as a Possible Multipronged Chemical Defense Mechanism” (J Nat Prod, 2024).

Data set [1] can be described thus: Chemical reactivity of compound in acetaldehyde assessed as (1S,2R,18R,19R,22S,25R,28R,40S)-48-[(2S,3R,4S,5S,6R)-3-[(2S,4S,5S,6S)-4-amino-5-hydroxy-4,6-dimethyl-tetrahydropyran-2-yl]oxy-4,5-dihydroxy-6-(hydroxymethyl)tetrahydropyran-2-yl]oxy-22-(2-amino-2-oxo-ethyl)-5,15-dichloro-2,18,32,35,37-pentahydroxy-19-[(2R,4R)-4-isobutyl-2,3-dimethyl-5-oxo-imidazolidin-1-yl]-20,23,26,42,44-pentaoxo-7,13-di …. It is filed as physicochemical.

Data set [2] deals with Staphylococcus aureus. The data set can be described thus: microbe, parasite or virus in culture. The following applies: ATCC 6538.
Description: Antibacterial activity against Staphylococcus aureus ATCC 6538 in presence of 8 mg/L HCHO by microdilution method
The subject of data set [3] is Bacillus subtilis. The data set can be described thus: Antibacterial activity against Bacillus subtilis ATCC 6051 incubated for 24 hrs by microdilution method. It is filed as functional.
Data set [4] has as its system Staphylococcus aureus. Kind of data set: Bactericidal activity against Staphylococcus aureus ATCC 43300 incubated for 24 hrs by microdilution method. It is filed as functional.
For data set [5], the system named is Staphylococcus aureus. The data set can be described thus: microbe, parasite or virus in culture. The settings on record: ATCC 43300.
Description: Antibacterial activity against methicillin-resistant Staphylococcus aureus ATCC 43300 in presence of 8 mg/L HCHO by microdilution method
The subject of data set [6] is Staphylococcus aureus. Kind of data set: microbe, parasite or virus in culture. The following applies: ATCC 43300. The source holds these as a separate data set.
Description: Antibacterial activity against methicillin-resistant Staphylococcus aureus ATCC 43300 in presence of 4 mg/L HCHO by microdilution method
A short description of data set [7]: Drug metabolism in Staphylococcus aureus ATCC 6538 assessed as (1S,2R,18R,19R,22S,25R,28R,40S)-48-[(2S,3R,4S,5S,6R)-3-[(2S,4S,5S,6S)-4-amino-5-hydroxy-4,6-dimethyl-tetrahydropyran-2-yl]oxy-4,5-dihydroxy-6-(hydroxymethyl)tetrahydropyran-2-yl]oxy-22-(2-amino-2-oxo-ethyl)-5,15-dichloro-2,18,32,35,37-pentahydroxy-19-[(4R)-4-isobutyl-3-methyl-5-oxo-imidazolidin-1-yl]-20,23,26,42,44-pentaoxo-7,13-dioxa- …. It is filed as ADME.

The nature of data set [8]: Chemical reactivity of compound in formaldehyde assessed as (1S,2R,18R,19R,22S,25R,28R,40S)-48-[(2S,3R,4S,5S,6R)-3-[(2S,4S,5S,6S)-4-amino-5-hydroxy-4,6-dimethyl-tetrahydropyran-2-yl]oxy-4,5-dihydroxy-6-(hydroxymethyl)tetrahydropyran-2-yl]oxy-22-(2-amino-2-oxo-ethyl)-5,15-dichloro-2,18,32,35,37-pentahydroxy-19-[(4R)-4-isobutyl-3-methyl-5-oxo-imidazolidin-1-yl]-20,23,26,42,44-pentaoxo-7,13-dioxa-21, …. It is filed as physicochemical.

A short description of data set [9]: Chemical reactivity of compound in formaldehyde assessed as (4R,4aR,5aS,12aR)-9-(3-(tert-butyl)-5-oxoimidazolidin-1-yl)-4,7-bis(dimethylamino)-3,10,12,12a-tetrahydroxy-1,11-dioxo-1,4,4a,5,5a,6,11,12a-octahydrotetracene-2-carboxamide formation. It is filed as physicochemical.
The test system of data set [10] is Bacillus subtilis. The data set can be described thus: Bactericidal activity against Bacillus subtilis ATCC 6051 incubated for 24 hrs by microdilution method. It is filed as functional.
Data set [11] relates to Staphylococcus aureus. The data set can be described thus: microbe, parasite or virus in culture. The settings on record: ATCC 6538. This is another data set of the same source.
Description: Antibacterial activity against Staphylococcus aureus ATCC 6538 in presence of 4 mg/L HCHO by microdilution method
In data set [12] the test system is Staphylococcus aureus. Kind of data set: Bactericidal activity against Staphylococcus aureus ATCC 6538 incubated for 24 hrs by microdilution method. It is filed as functional.
The subject of data set [13] is Streptomyces sp. Kind of data set: Protection against formaldehyde-induced toxicity in Streptomyces sp. OUCMDZ-4982 cultured in Gauze medium assessed as decrease in bacterial growth incubated for 1 hr. It is filed as functional, organism-based.
In data set [14] the test system is Streptomyces sp. Kind of data set: Protection against formaldehyde-induced toxicity in Streptomyces sp. OUCMDZ-4982 cultured in Gauze medium assessed as inhibition of bacterial growth incubated for 1 hr. It is filed as functional, organism-based.
Data set [15] has as its system Streptomyces sp. The data set can be described thus: Protection against formaldehyde-induced toxicity in Streptomyces sp. OUCMDZ-4982 cultured in A1 medium assessed as decrease in bacterial growth incubated for 1 hr. It is filed as functional, organism-based.
The nature of data set [16]: Drug metabolism in Staphylococcus aureus ATCC 6538 assessed as 3,3-methylenebis(4-hydroxy-6-methyl-2H-pyran-2-one) formation in presence of 2266E medium by HPLC analysis. It is filed as ADME.

In brackets after ≈: the same amount, converted by molar mass. Activity calls are given as the source filed them. The rule behind the calls is not given here.

As to `CN[C@H](CC(C)C)C(=O)N[C@H]1C(=O)N[C@@H](CC(N)=O)C(=O)N[C@H]2C(=O)N[C@H]3C(=O)N[C@H](C(=O)N[C@H](C(=O)O)c4cc(O)cc(O)c4-c4cc3ccc4O)[C@H](O)c3ccc(c(Cl)c3)Oc3cc2cc(c3O[C@@H]2O[C@H](CO)[C@@H](O)[C@H](O)[C@H]2O[C@H]2C[C@](C)(N)[C@H](O)[C@H](C)O2)Oc2ccc(cc2Cl)[C@H]1O` [VANCOMYCIN], the result in data set [1], in data set [8] and in [9] was Active. Further, the MIC came to 16 µg/mL (≈ 11 µM) with Staphylococcus aureus [2]; 0.5 µg/mL (≈ 0.345 µM) against Bacillus subtilis [3]; 16 µg/mL (≈ 11 µM) against Staphylococcus aureus [5]; 8 µg/mL (≈ 5.52 µM) in the data set with Staphylococcus aureus [6]; 8 µg/mL (≈ 5.52 µM) in the data set with Staphylococcus aureus [11]. Besides, the minimal bactericidal concentration (MBC) against Staphylococcus aureus [4] came to 4 µg/mL (≈ 2.76 µM); with Bacillus subtilis [10], 0.5 µg/mL (≈ 0.345 µM); with Staphylococcus aureus [12] it was 4 µg/mL (≈ 2.76 µM). For the same molecule, the Drug metabolism entry in data set [7] is recorded as “metabolite_detected”.
For the molecule `Cc1cc(O)cc(=O)o1` [4-HYDROXY-6-METHYLPYRAN-2-ONE], the outcome with Streptomyces sp. [13] was inactive. Further, the result with Streptomyces sp. [14] and with Streptomyces sp. [15] was Active. For the same molecule, in data set [16], the Drug metabolism result is “metabolite_detected”.
